From ChEMBL document CHEMBL1201862, “PubChem BioAssay data set” (2004)
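Briefly, cells in 96-well plates were exposed to five compound concentrations for 48 h, and endpoints were estimated by linear interpolation. Here, GI50 denotes the concentration required for 50% inhibition of growth.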 The source made the active and inactive calls. No stated cut-off is given here; in the data, active = GI50 up to about 1.1 µM and inactive = higher.

Tests used:
Assay in all cases: NCI tumour cell line growth inhibition, 48 h
A498 = tested on: A498
ACHN = tested on: ACHN
CAKI-1 = tested on: CAKI-1
EKVX = tested on: EKVX
HCT-116 = tested on: HCT-116
HL-60 = tested on: HL-60
Hs-578T = tested on: Hs-578T
LOX IMVI = tested on: LOX IMVI
MDA-N = tested on: MDA-N
NCI-H522 = tested on: NCI-H522
NCI/ADR-RES = tested on: NCI/ADR-RES
OVCAR-5 = tested on: OVCAR-5
RPMI-8226 = tested on: RPMI-8226
RXF 393 = tested on: RXF 393
SF-295 = tested on: SF-295
SK-MEL-28 = tested on: SK-MEL-28
SK-OV-3 = tested on: SK-OV-3
SN12C = tested on: SN12C
U-251 = tested on: U-251

| Structure (SMILES) | GI50 (A498) | GI50 (ACHN) | GI50 (CAKI-1) | GI50 (EKVX) | GI50 (HCT-116) | GI50 (HL-60) | GI50 (Hs-578T) | GI50 (LOX IMVI) | GI50 (MDA-N) | GI50 (NCI-H522) | GI50 (NCI/ADR-RES) | GI50 (OVCAR-5) | GI50 (RPMI-8226) | GI50 (RXF 393) | GI50 (SF-295) | GI50 (SK-MEL-28) | GI50 (SK-OV-3) | GI50 (SN12C) | GI50 (U-251) |
| --- | --- | --- | --- | --- | --- | --- | --- | --- | --- | --- | --- | --- | --- | --- | --- | --- | --- | --- | --- |
| CC(C)(C)OC(=O)NC(Cc1ccc(OCc2ccccc2)cn1)C(=O)N1CCCCC1 (centres undefined) | 34.5 µM (inactive) | 41.4 µM (inactive) | 60.4 µM (inactive) | 37.1 µM (inactive) | 40.8 µM (inactive) | 27 µM (inactive) | 67.3 µM (inactive) | 25.4 µM (inactive) | 28.1 µM (inactive) | 32.1 µM (inactive) | 20.9 µM (inactive) | 65.2 µM (inactive) | 20.7 µM (inactive) | 19.5 µM (inactive) | 30.5 µM (inactive) | 54.3 µM (inactive) | 58.6 µM (inactive) | 37.8 µM (inactive) | 42.4 µM (inactive) |
| CN1C(Cl)=NS(=O)(=O)c2ccccc21 | 58.2 µM (inactive) | > 100 µM (inactive) | 16.9 µM (inactive) | > 100 µM (inactive) | > 100 µM (inactive) | 35.7 µM (inactive) | > 100 µM (inactive) | > 100 µM (inactive) | > 100 µM (inactive) | 28 µM (inactive) | > 100 µM (inactive) | > 100 µM (inactive) | – | > 100 µM (inactive) | > 100 µM (inactive) | > 100 µM (inactive) | > 100 µM (inactive) | > 100 µM (inactive) | > 100 µM (inactive) |
| Cc1cccc2c1CC(C1OC(=O)c3ccccc31)C2=O (centres undefined) | > 100 µM (inactive) | > 100 µM (inactive) | > 100 µM (inactive) | > 100 µM (inactive) | > 100 µM (inactive) | > 100 µM (inactive) | > 100 µM (inactive) | > 100 µM (inactive) | > 100 µM (inactive) | > 100 µM (inactive) | > 100 µM (inactive) | > 100 µM (inactive) | > 100 µM (inactive) | > 100 µM (inactive) | > 100 µM (inactive) | > 100 µM (inactive) | > 100 µM (inactive) | > 100 µM (inactive) | > 100 µM (inactive) |
| Cc1ccc(N)c(S)c1 | 16.7 µM (inactive) | 18.5 µM (inactive) | 28.8 µM (inactive) | 16.2 µM (inactive) | 32.1 µM (inactive) | 25.2 µM (inactive) | 38 µM (inactive) | 16.4 µM (inactive) | 14.9 µM (inactive) | 17.9 µM (inactive) | 24 µM (inactive) | 22.3 µM (inactive) | – | 16.8 µM (inactive) | 18 µM (inactive) | 27.5 µM (inactive) | 27.9 µM (inactive) | 1.7 µM (inactive) | 15.2 µM (inactive) |
| C=C(C)C1CC2(C)C(C)CC(O)CC2C(OC(=O)C=C(C)C)C1O (centres undefined) | 65.5 µM (inactive) | 18.6 µM (inactive) | 43.3 µM (inactive) | 34.8 µM (inactive) | 52.7 µM (inactive) | 23 µM (inactive) | 27.1 µM (inactive) | 55 µM (inactive) | 36.4 µM (inactive) | 24.3 µM (inactive) | 30.5 µM (inactive) | 31.3 µM (inactive) | – | 26.9 µM (inactive) | 23 µM (inactive) | 51.2 µM (inactive) | 58.6 µM (inactive) | 30.9 µM (inactive) | 40 µM (inactive) |
| COC(=O)CC1C=CC(C)(OC)OO1 (centres undefined) | > 100 µM (inactive) | 94.4 µM (inactive) | > 100 µM (inactive) | > 100 µM (inactive) | > 100 µM (inactive) | 21 µM (inactive) | > 100 µM (inactive) | 48.3 µM (inactive) | > 100 µM (inactive) | 16.9 µM (inactive) | > 100 µM (inactive) | > 100 µM (inactive) | 56.2 µM (inactive) | 51.1 µM (inactive) | > 100 µM (inactive) | > 100 µM (inactive) | > 100 µM (inactive) | > 100 µM (inactive) | > 100 µM (inactive) |
| Cc1cc(C(F)(F)F)cc(-n2nc(NS(=O)(=O)c3cc(C)c(Cl)cc3S)nc2N)n1 | 26 µM (inactive) | 53.3 µM (inactive) | 7.46 µM (inactive) | 55.6 µM (inactive) | 33.7 µM (inactive) | 32.8 µM (inactive) | 41 µM (inactive) | 18.7 µM (inactive) | 52.8 µM (inactive) | 32 µM (inactive) | 30.8 µM (inactive) | – | 65.8 µM (inactive) | > 100 µM (inactive) | 8.79 µM (inactive) | 55.3 µM (inactive) | 81.7 µM (inactive) | 35.5 µM (inactive) | 42.2 µM (inactive) |
| FC1(F)ON2CCc3ccccc3C2[C@H]1c1ccccc1 (some centres undefined) | > 10 µM (inactive) | > 10 µM (inactive) | > 10 µM (inactive) | > 10 µM (inactive) | 65.6 µM (inactive) | > 10 µM (inactive) | 4.25 µM (inactive) | 91 µM (inactive) | > 10 µM (inactive) | > 10 µM (inactive) | 92.9 µM (inactive) | > 10 µM (inactive) | > 10 µM (inactive) | 76.4 µM (inactive) | > 10 µM (inactive) | > 10 µM (inactive) | > 10 µM (inactive) | > 10 µM (inactive) | 74 µM (inactive) |
| COc1ccc(N2C(=O)CC(=O)N(NC(=O)C(C)Oc3ccccc3C)C2=S)cc1 (centres undefined) | > 100 µM (inactive) | > 100 µM (inactive) | > 100 µM (inactive) | > 100 µM (inactive) | > 100 µM (inactive) | > 100 µM (inactive) | > 100 µM (inactive) | > 100 µM (inactive) | > 100 µM (inactive) | > 100 µM (inactive) | > 100 µM (inactive) | > 100 µM (inactive) | > 100 µM (inactive) | > 100 µM (inactive) | > 100 µM (inactive) | > 100 µM (inactive) | > 100 µM (inactive) | > 100 µM (inactive) | > 100 µM (inactive) |
| COC(=O)c1ccccc1C1CN=NC12Cc1ccc3ccccc3c1C2=O (centres undefined) | > 100 µM (inactive) | > 100 µM (inactive) | > 100 µM (inactive) | > 100 µM (inactive) | – | 8.43 µM (inactive) | 94.4 µM (inactive) | > 100 µM (inactive) | > 100 µM (inactive) | 80.4 µM (inactive) | > 100 µM (inactive) | > 100 µM (inactive) | 13.4 µM (inactive) | 78.3 µM (inactive) | 38.5 µM (inactive) | > 100 µM (inactive) | – | > 100 µM (inactive) | > 100 µM (inactive) |
| C1CCCCC2(CCCCCCCCC3(CCC1)OCCO3)OCCO2 | > 100 µM (inactive) | > 100 µM (inactive) | > 100 µM (inactive) | > 100 µM (inactive) | > 100 µM (inactive) | > 100 µM (inactive) | > 100 µM (inactive) | > 100 µM (inactive) | > 100 µM (inactive) | > 100 µM (inactive) | > 100 µM (inactive) | > 100 µM (inactive) | – | > 100 µM (inactive) | > 100 µM (inactive) | > 100 µM (inactive) | > 100 µM (inactive) | > 100 µM (inactive) | > 100 µM (inactive) |
| COc1cc(C2=C(c3cc(OC)c4ccccc4c3OC)C(=O)c3ccccc3C2=O)c(OC)c2ccccc12 | > 100 µM (inactive) | > 100 µM (inactive) | > 100 µM (inactive) | > 100 µM (inactive) | > 100 µM (inactive) | 10.2 µM (inactive) | > 100 µM (inactive) | > 100 µM (inactive) | > 100 µM (inactive) | > 100 µM (inactive) | > 100 µM (inactive) | 75.9 µM (inactive) | – | > 100 µM (inactive) | > 100 µM (inactive) | > 100 µM (inactive) | > 100 µM (inactive) | > 100 µM (inactive) | > 100 µM (inactive) |
| c1ccc([P+](CCCCCC[P+](c2ccccc2)(c2ccccc2)c2ccccc2)(c2ccccc2)c2ccccc2)cc1 | 5.04 µM (inactive) | 50.8 µM (inactive) | > 100 µM (inactive) | 54.5 µM (inactive) | 4.51 µM (inactive) | 10.6 µM (inactive) | 15.3 µM (inactive) | 12.2 µM (inactive) | 16.1 µM (inactive) | 7.24 µM (inactive) | > 100 µM (inactive) | 34.3 µM (inactive) | – | 11.6 µM (inactive) | 59.4 µM (inactive) | 17.5 µM (inactive) | 62.2 µM (inactive) | 15.3 µM (inactive) | 0.798 µM (active) |
| Cc1ccn2c(CCc3nnc4cc(C)ccn34)nnc2c1 | > 100 µM (inactive) | > 100 µM (inactive) | > 100 µM (inactive) | > 100 µM (inactive) | > 100 µM (inactive) | 0.129 µM (active) | > 100 µM (inactive) | – | > 100 µM (inactive) | > 100 µM (inactive) | > 100 µM (inactive) | > 100 µM (inactive) | > 100 µM (inactive) | > 100 µM (inactive) | > 100 µM (inactive) | > 100 µM (inactive) | > 100 µM (inactive) | > 100 µM (inactive) | > 100 µM (inactive) |
| CCOC(=O)C1CCC(=O)N1C(=O)c1cccc(Cl)c1 (centres undefined) | > 100 µM (inactive) | > 100 µM (inactive) | > 100 µM (inactive) | > 100 µM (inactive) | > 100 µM (inactive) | > 100 µM (inactive) | > 100 µM (inactive) | > 100 µM (inactive) | > 100 µM (inactive) | > 100 µM (inactive) | > 100 µM (inactive) | > 100 µM (inactive) | > 100 µM (inactive) | > 100 µM (inactive) | > 100 µM (inactive) | > 100 µM (inactive) | – | > 100 µM (inactive) | > 100 µM (inactive) |
